KD and binding data for 2 molecules are collected here from PMC9753424 (2022).

Test in all cases: bio-layer interferometry
The subject of assay [1] is MYC-G4 (DNA, G4) TGAGGGTGGGTAGGGTGGGTAA
The following applies: PBS (ion concentrations not given), 0.5% DMSO, 0.02% Tween-20, 25 °C sensor hydration.

The subject of assay [2] is ssDNA oligonucleotide (DNA, single strand) GGCATAGTGCGTGGGCG
The conditions noted are these: PBS (ion concentrations not given), 0.5% DMSO, 0.02% Tween-20, highest hemin 8 μM.

Assay [3] deals with double-stranded DNA (DNA, duplex) GGCATAGTGCGTGGGCG/CGCCCACGCACTATGCC
The following applies: PBS (ion concentrations not given), 0.5% DMSO, 0.02% Tween-20, highest hemin 8 μM.

For assay [4], the system named is SPB1-G4 (DNA, G4) GGCGAGGGGCGTGGCCGGC
The following applies: PBS (ion concentrations not given), 0.5% DMSO, 0.02% Tween-20, highest hemin 8 μM.

For assay [5], the system named is hTELO-G4 (DNA, G4) GGTTAGGGTTAGGGTTAGGGTTAGGGTTAG
The following applies: PBS (ion concentrations not given), 0.5% DMSO, 0.02% Tween-20, highest hemin 8 μM.

The test system of assay [6] is intermolecular hTELO-G4 (DNA, G4) TTAGGGTTAGGGTTAGGG
The following applies: PBS (ion concentrations not given), 0.5% DMSO, 0.02% Tween-20, highest hemin 8 μM.

In assay [1] (hemin 0.5-8 μM), `C=CC1=C(C)c2cc3[n-]c(cc4[n-]c(cc5nc(cc1n2)C(C)=C5C=C)c(C)c4CCC(=O)O)c(CCC(=O)O)c3C.[Cl-].[Fe+3]` gave a KD of 1520 ± 40 nM. Further, the binding result in assay [2], in assay [3], in assay [4], in assay [5] and in assay [6] was “no” each time.

As for `C=CC1=C(C)c2cc3[nH]c(cc4nc(cc5[nH]c(cc1n2)c(C)c5CCC(=O)O)C(CCC(=O)O)=C4C)c(C)c3C=C`, the equilibrium dissociation constant (KD) in assay [1] (PpIX 1.25-20 μM) was 3040 ± 50 nM.
